Laboratory results from US20140044655A1, “NOVEL ACTIVATOR PEPTIDES FOR SYNTHESIZING EXTRACELLULAR MATRIX PROTEINS, AND COSMETIC COMPOSITIONS INCLUDING SAME” (ISP INVESTMENTS INC., priority 2011, published 2014).
Where no end group is shown, it is not given here.

Legend:
Assay type in all cases: cell-based
collagen I [1] = experiment: Collagen I immunolabeling in human skin samples cultivated ex vivo; conditions: topical 0.5%, 1% or 3% (stock solution 40 mg/kg), 24, 48 and/or 72 hours
Method: (§1) The objective of this study is to determine the influence of the peptide SEQ ID NO: 5 on the expression of the following extracellular matrix proteins: collagen I, collagen III, pro-collagen, fibronectin and hyaluronic acid in the human skin. For this, specific labelings were performed on human skin samples cultivated ex vivo.
(§2) Human skin samples are placed in culture at the air/liquid interface. The peptide SEQ ID NO: 5 is applied topically on the samples at final concentrations of 0.5%, 1% or 3%, (using a stock solution at 40 mg/kg) then the samples are incubated for 24, 48 and/or 72 hours at 37° C.
(§3) These skin samples are then fixed with formaldehyde then embedded in paraffin or fixed and embedded in OCT then frozen at −20° C. Sections with a thickness of 4 μm are then produced (6 μm for cold sections).
(§4) The labelings of the collagen I and the collagen III, on the samples embedded in paraffin, are performed after unmasking specific sites. The immunolabelings are performed using a specific rabbit collagen I polyclonal antibody (Rockland, Ref: 600-401-103-0.5), a specific rabbit collagen III polyclonal antibody (Rockland, Ref: 600-401-105-0.5), then an anti-rabbit secondary antibody coupled with a fluorochrome (Invitrogen, Ref: A21206). […]

pro-collagen [2] = experiment: Pro-collagen immunolabeling in human skin samples cultivated ex vivo; conditions: topical 0.5%, 1% or 3% (stock solution 40 mg/kg), 24, 48 and/or 72 hours
Method: as §1, §2, §3
The immunolabeling of the pro-collagen, on the samples embedded in OCT, is performed after fixing for 10 minutes with cold acetone. The immunolabeling is performed using a specific rat pro-collagen polyclonal antibody (Millipore, Ref: MAB 1912) then an anti-rat secondary antibody, coupled with a fluorescent marker (Invitrogen, A11006).
The cells are then examined under the epifluorescence microscope (Nikon Eclipse E600 microscope).

collagen I [3] = experiment: Specific labeling of collagen I in human fibroblast cultures (epifluorescence); conditions: human dermal fibroblasts; peptide 0.5%, 1% and/or 3% (stock solution 40 mg/kg); 24, 48 and/or 72 hours; vs control
Method: (§5) The objective of this study is to determine the influence of the peptides SEQ ID NO: 4 and NO: 5 and the peptide SEQ ID NO: 4 on the expression of the following extracellular matrix proteins: collagen I, collagen III, pro-collagen, fibronectin and hyaluronic acid in human fibroblasts. For this, specific labelings were performed on normal human fibroblast cultures obtained from the dermis.
(§6) Human fibroblasts in culture are treated with the peptide SEQ ID NO: 5 or the peptide SEQ ID NO: 4 at a final concentration of 0.5%, 1% and/or 3% (based on a stock solution at 40 mg/kg), for 24, 48 and/or 72 hours. The cells are then washed, fixed with cold methanol for 4 minutes at 4° C. (for the collagen I, collagen III and hyaluronic acid labelings) or with formaldehyde at 3.7% for 10 minutes at room temperature (for the pro-collagen and fibronectin labelings). The cells are incubated in the presence of a specific rabbit collagen I polyclonal antibody (Rockland, Ref: 600-401-103-0.5), a specific rabbit collagen III polyclonal antibody (Rockland, Ref: 600-401-105-0.5), a specific rat pro-collagen polyclonal antibody (Millipore, Ref: MAB1912), a specific rabbit fibronectin polyclonal antibody (Sigma, Ref: F-3648), then an anti-rabbit secondary antibody coupled with a fluorochrome (Invitrogen, Ref: A21206) or anti-rat coupled with a fluorochrome (Invitrogen, A11006). […]

pro-collagen [4] = experiment: Specific labeling of pro-collagen in human fibroblast cultures (epifluorescence); conditions: human dermal fibroblasts; peptide 0.5%, 1% and/or 3% (stock solution 40 mg/kg); 24, 48 and/or 72 hours; vs control
Method: as §5, §6

P16 = experiment: Expression of senescence marker P16 in human fibroblasts (immunolabeling); conditions: 0.5% and 1% (stock solution 40 mg/kg), 48 hours
Method: The objective of this study is to determine the influence of the peptide SEQ ID NO: 5 on the expression of P16, a protein of which the expression in the skin increases with age. P16 is a protein involved in the negative regulation of the cellular cycle, which has been described as a reliable marker of cellular senescence (Brookes S. et al. Experimental Cell Research 298, 2004).
Human fibroblasts in culture are treated with the peptide SEQ ID NO: 5 at final concentrations of 0.5% and 1% (using a stock solution at 40 mg/kg) for 48 hours. The cells are prepared according to the Shandon Cytoblock® Cell preparation system kit (Thermo Scientific, Ref: 7401150).
The cells are then fixed with formaldehyde then embedded in paraffin. Sections of 4 μm are then produced. The labeling of p16 on the cells embedded in paraffin is performed after unmasking the specific sites. The immunolabelings are performed using a specific mouse p16 polyclonal antibody (Santa-Cruz, Ref: sc-81157), then an anti-mouse secondary antibody coupled with a fluorochrome (Invitrogen, Ref: A21202). The cells are then examined under the epifluorescence microscope (Nikon Eclipse E600 microscope).

fibronectin = experiment: Specific labeling of fibronectin in human fibroblast cultures (epifluorescence); conditions: human dermal fibroblasts; peptide 0.5%, 1% and/or 3% (stock solution 40 mg/kg); 24, 48 and/or 72 hours; vs control
Method: as §5, §6

hyaluronic acid [5] = experiment: Specific labeling of hyaluronic acid in human fibroblast cultures (epifluorescence); conditions: human dermal fibroblasts; peptide 0.5%, 1% and/or 3% (stock solution 40 mg/kg); 24, 48 and/or 72 hours; vs control
Method: as §5, §6

[6] = test system: senescent fibroblasts (β-galactosidase activity); experiment: Reversal of senescence induced by FOXO3a siRNA in human fibroblasts (β-galactosidase, X-Gal staining); conditions: human fibroblasts treated with FOXO3a siRNA 25 nM; peptide 1% (stock solution 40 mg/kg); 48 hours
Source text: The objective of this study is to determine the influence of the peptide SEQ ID NO: 5 on senescent fibroblasts, of which the senescence has been induced by the extinction of the FOXO3a gene. These cells overexpress beta-galactosidase, in relation to their senescent state.
FOXO3a is a Forkhead transcription factor involved in cell longevity. In the skin, the negative regulation of FOXO3a accelerates the senescence of normal human fibroblasts (Hyun Kyoung K. et al. J. of Gerontol., 2005, vol. 60A n° 1, pages 4-9). This property was used to advantage to induce senescence in human fibroblasts by blocking FOXO3a expression by a specific interfering RNA (siRNA).
Human fibroblasts in culture are rendered senescent by treatment with a specific siRNA of FOXO3a at a final concentration of 25 nM using the Lipofectamine™ RNAiMAX (Invitrogen, Ref: 13778-075) transfection technique. Untreated controls are produced. The fibroblasts are treated in parallel by the peptide SEQ ID NO: 5 at a final concentration of 1% (using a stock solution at 40 mg/kg) for 48 hours.
The cells are rinsed and fixed in a fixation buffer (0.2% glutaraldehyde, 2% formaldehyde). The cells are then incubated at 37° C. without CO2 for 24 hours with an X-Gal solution at 1 mg/mL in 40 mM of citric acid/phosphate (pH 6), 5 mM K3FeCN6, 5 mM K4FeCN6, 150 mM NaCl and 2 mM MgCl2. […]

[7] = test system: Collagen I messenger RNAs; experiment: Expression of collagen I messenger RNAs by real-time PCR in human fibroblasts; conditions: 0.5% and 1% (stock solution 40 mg/kg), 24, 48 and 72 hours, comparative Ct method, 18S control
Method: The objective of this study is to determine the influence of the peptide SEQ ID NO: 5 on the expression of collagen I messenger RNAs in the human fibroblasts. For this, the expression of collagen I was studied by real-time PCR.
Human fibroblasts in culture are treated with the peptide SEQ ID NO: 5 at final concentrations of 0.5% and 1% (using a stock solution at 40 mg/kg) for 24, 48 and 72 hours. The total RNAs are extracted using an extraction kit (QIAGEN), then reverse transcribed with a specific kit containing RNase inhibitors (Applied Biosystems). A real-time PCR is performed in a thermocycler using a specific Collagen I TaqMan Gene Expression Assay (Applied Biosystem, […]) and a specific 18S TaqMan Gene Expression Assay used as an endogenous control (Applied Biosystem, […]). The relative quantification of the expression of the Collagen I messenger RNAs is performed by the comparative Ct method (the Ct, the threshold cycle, is the intersection between the amplification curve and the threshold line).

collagen III [8] = experiment: Specific labeling of collagen III in human fibroblast cultures (epifluorescence); conditions: human dermal fibroblasts; peptide 0.5%, 1% and/or 3% (stock solution 40 mg/kg); 24, 48 and/or 72 hours; vs control
Method: as §5, §6

hyaluronic acid [9] = experiment: Hyaluronic acid labeling in human skin samples cultivated ex vivo; conditions: topical 0.5%, 1% or 3% (stock solution 40 mg/kg), 24, 48 and/or 72 hours
Method: as §1, §2, §3, §4

collagen III [10] = experiment: Collagen III immunolabeling in human skin samples cultivated ex vivo; conditions: topical 0.5%, 1% or 3% (stock solution 40 mg/kg), 24, 48 and/or 72 hours
Method: as §1, §2, §3, §4

Substance | expression of collagen I in the dermis (collagen I [1]) | expression of pro-collagen in the dermis (pro-collagen [2]) | expression of collagen I (collagen I [3]) | expression of pro-collagen (pro-collagen [4]) | p16 immunolabeling, nuclear fluorescence (expression of the p16 senescence marker) (P16) | expression of fibronectin (fibronectin) | expression of hyaluronic acid (hyaluronic acid [5]) | β-galactosidase activity (number of cells stained blue) [6] | expression of Collagen I messenger RNAs [7] | expression of collagen III (collagen III [8]) | expression of hyaluronic acid in the human dermis (hyaluronic acid [9]; dermis) | expression of hyaluronic acid in the human epidermis (hyaluronic acid [9]; epidermis) | expression of collagen III in the dermis (collagen III [10])
Gly-Pro-Ala-Gly-Pro-NH2 (GPAGP-NH2) [SEQ ID NO: 5] | stimulates the expression | stimulates the expression | stimulate the expression | stimulate the expression | less intense nuclear fluorescence | stimulate the expression | stimulate the expression | decrease in the β-galactosidase activity | stimulates the expression | stimulate the expression | stimulates the expression | stimulates the expression | stimulates the expression
Gly-Pro-Ala-Gly-Pro (GPAGP) [SEQ ID NO: 4] | – | – | stimulate the expression | stimulate the expression | – | stimulate the expression | stimulate the expression | – | – | stimulate the expression | – | – | –
